According to patent publication US20230097157A1, “Bicyclic Pyridin-2-one and pyrimidin-4-one Derivatives Useful As a Factor XIa Inhibitors” (Janssen Pharmaceutica NV, priority 2021, published 2023):
Where two headings read alike, the source gives them in different places.

How the values were obtained:
[1] = target: Factor XIa (Homo sapiens, UniProt P03951); assay: Factor XIa inhibition assay (FLINT) utilizing a fluorophore-quencher pair peptide substrate 5Fam-[…]-K5Tamra; assay type: biochemical; conditions: kinetic (KIN) reads, read-out: FXIa KIN Inh IC50
Sequence of Factor XIa (P03951 388-625 limits assumed): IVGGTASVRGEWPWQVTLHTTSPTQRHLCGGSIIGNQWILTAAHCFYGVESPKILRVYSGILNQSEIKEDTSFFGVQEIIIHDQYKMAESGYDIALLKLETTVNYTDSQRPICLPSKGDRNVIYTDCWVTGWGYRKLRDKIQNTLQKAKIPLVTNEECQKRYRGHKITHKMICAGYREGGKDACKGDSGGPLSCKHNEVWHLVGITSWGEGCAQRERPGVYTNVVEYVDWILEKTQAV
Sequence of Factor XIa (P03951 19-387 partner limits assumed): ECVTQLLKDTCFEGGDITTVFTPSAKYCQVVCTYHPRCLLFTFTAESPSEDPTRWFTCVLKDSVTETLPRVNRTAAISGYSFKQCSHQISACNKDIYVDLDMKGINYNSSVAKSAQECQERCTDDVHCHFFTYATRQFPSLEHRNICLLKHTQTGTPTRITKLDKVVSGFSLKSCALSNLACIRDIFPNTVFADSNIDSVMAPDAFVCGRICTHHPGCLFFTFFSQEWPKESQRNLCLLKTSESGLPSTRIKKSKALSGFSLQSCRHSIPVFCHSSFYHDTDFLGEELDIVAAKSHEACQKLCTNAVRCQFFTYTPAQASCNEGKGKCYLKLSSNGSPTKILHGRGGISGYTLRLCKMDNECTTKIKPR
In short: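 FXIa was preincubated with compound for 30 min at room temperature in Tris pH 7.5 buffer containing CaCl2, BSA and CHAPS, then reacted with 15 μM quenched 5Fam/Tamra peptide substrate. Fluorescence (485/520 nm) was read kinetically every 5 min for 30 min.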

[2] = target: human plasma kallikrein (Homo sapiens, UniProt P03952); assay: Kallikrein inhibition assay (FLINT) utilizing a quenched AMC peptide substrate Z-Gly-Pro-Arg-AMC; assay type: biochemical; conditions: kinetic (KIN) reads, read-out: Kallikrein KIN Inh IC50
Sequence of human plasma kallikrein (P03952 391-638 limits assumed): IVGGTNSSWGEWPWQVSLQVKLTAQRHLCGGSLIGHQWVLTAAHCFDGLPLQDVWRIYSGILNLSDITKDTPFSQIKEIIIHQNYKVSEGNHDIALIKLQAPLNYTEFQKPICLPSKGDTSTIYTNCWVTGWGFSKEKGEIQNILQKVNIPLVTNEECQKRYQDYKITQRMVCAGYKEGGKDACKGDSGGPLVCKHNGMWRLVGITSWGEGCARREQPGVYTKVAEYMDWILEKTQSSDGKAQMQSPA
Sequence of human plasma kallikrein (P03952 20-390 partner limits assumed): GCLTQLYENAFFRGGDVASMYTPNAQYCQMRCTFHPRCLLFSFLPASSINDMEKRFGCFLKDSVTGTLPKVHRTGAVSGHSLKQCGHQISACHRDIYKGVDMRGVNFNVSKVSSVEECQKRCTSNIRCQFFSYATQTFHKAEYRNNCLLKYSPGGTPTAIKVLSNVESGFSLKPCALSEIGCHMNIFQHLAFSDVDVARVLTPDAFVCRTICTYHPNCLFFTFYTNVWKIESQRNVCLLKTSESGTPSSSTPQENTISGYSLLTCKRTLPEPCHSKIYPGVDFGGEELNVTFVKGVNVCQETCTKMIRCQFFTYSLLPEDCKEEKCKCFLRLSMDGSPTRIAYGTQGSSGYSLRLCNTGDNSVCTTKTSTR
In short: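 Human plasma kallikrein (2 nM final) pre-incubated 30 min with compound (11-point 3-fold series, top 1 μM, 2% DMSO), then 50 μM Z-Gly-Pro-Arg-AMC added. Buffer 50 mM Tris pH 7.5, 100 mM NaCl, 5 mM CaCl2, BSA, CHAPS. AMC fluorescence (340/440 nm) read kinetically over 30 min at room temperature, IC50 by 4-parameter logistic fit.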

| Compound | IC50 ([1]; values in nM) [nM] | IC50 ([2]; values in nM) [nM] | IC50 ([2]; unit μM) [nM] | IC50 ([1]; unit μM) [nM] |
| --- | --- | --- | --- | --- |
| Cc1nc(N)cnc1-c1cnc([C@@H]2CC(C)c3nc(-c4c(-n5cnnn5)ccc(Cl)c4F)cc(=O)n32)[nH]1 (stereo partly drawn) [Example 95, (6S)-6-(5-(5-Amino-3-methylpyrazin-2-yl)-1H-imidazol-2-yl)-2-(3-chloro-2-fluoro-6-(1H-tetrazol-1-yl)phenyl)-8-methyl-7,8-dihydropyrrolo[1,2-a]pyrimidin-4(6H)-one] | 5.3 | 71.7 | – | – |
| Cc1nc(N)cnc1-c1cnc([C@H]2CC(C)c3nc(-c4c(-n5cnnn5)ccc(Cl)c4F)cc(=O)n32)[nH]1 (stereo partly drawn) [Example 96, (6R)-6-(5-(5-Amino-3-methylpyrazin-2-yl)-1H-imidazol-2-yl)-2-(3-chloro-2-fluoro-6-(1H-tetrazol-1-yl)phenyl)-8-methyl-7,8-dihydropyrrolo[1,2-a]pyrimidin-4(6H)-one] | > 100 | – | > 1000 | – |
| Cc1nc(N)sc1-c1cnc([C@@H]2CC3(CC3)c3nc(-c4c(-n5cnnn5)ccc(Cl)c4F)cc(=O)n32)[nH]1 [Example 131, (S)-6′-(5-(2-Amino-4-methylthiazol-5-yl)-1H-imidazol-2-yl)-2′-(3-chloro-2-fluoro-6-(1H-tetrazol-1-yl)phenyl)-6′,7′-dihydro-4′H-spiro[cyclopropane-1,8′-pyrrolo[1,2-a]pyrimidin]-4′-one] | 92.2 | 669 | – | – |
| Cc1nc(N)sc1-c1cnc([C@H]2CC3(CC3)c3nc(-c4c(-n5cnnn5)ccc(Cl)c4F)cc(=O)n32)[nH]1 [Example 132, (R)-6′-(5-(2-Amino-4-methylthiazol-5-yl)-1H-imidazol-2-yl)-2′-(3-chloro-2-fluoro-6-(1H-tetrazol-1-yl)phenyl)-6′,7′-dihydro-4′H-spiro[cyclopropane-1,8′-pyrrolo[1,2-a]pyrimidin]-4′-one] | – | – | > 10000 | > 10000 |
| Nc1ccc(-c2cnc([C@H]3CC4(CC4)c4nc(-c5c(-n6cnnn6)ccc(Cl)c5F)cc(=O)n43)[nH]2)c(F)n1 [Example 133, (R)-6′-(5-(6-Amino-2-fluoropyridin-3-yl)-1H-imidazol-2-yl)-2′-(3-chloro-2-fluoro-6-(1H-tetrazol-1-yl)phenyl)-6′,7′-dihydro-4′H-spiro[cyclopropane-1,8′-pyrrolo[1,2-a]pyrimidin]-4′-one] | 231 | – | 4000 | – |
| Nc1ccc(-c2cnc([C@@H]3CC4(CC4)c4nc(-c5c(-n6cnnn6)ccc(Cl)c5F)cc(=O)n43)[nH]2)c(F)n1 [Example 134, (S)-6′-(5-(6-Amino-2-fluoropyridin-3-yl)-1H-imidazol-2-yl)-2′-(3-chloro-2-fluoro-6-(1H-tetrazol-1-yl)phenyl)-6′,7′-dihydro-4′H-spiro[cyclopropane-1,8′-pyrrolo[1,2-a]pyrimidin]-4′-one] | 1.2 | 16.8 | – | – |

Next, values leading:

| IC50 ([1]; values in nM) [nM] | IC50 ([2]; values in nM) [nM] | IC50 ([2]; unit μM) [nM] | IC50 ([1]; unit μM) [nM] | Compound |
| --- | --- | --- | --- | --- |
| 0.3 | 18 | – | – | CCO[C@@H]1C[C@@H](c2ncc(-c3ccc(N)nc3F)[nH]2)n2c1cc(-c1c(-n3cnnn3)ccc(Cl)c1F)cc2=O [Example 139, (1R,3S)-3-(5-(6-Amino-2-fluoropyridin-3-yl)-1H-imidazol-2-yl)-7-(3-chloro-2-fluoro-6-(1H-tetrazol-1-yl)phenyl)-1-ethoxy-2,3-dihydroindolizin-5(1H)-one] |
| 0.5 | 13.5 | – | – | C[C@H]1C[C@H](c2ncc(-c3ccc(N)nc3Cl)[nH]2)n2c1nc(-c1c(-n3cnnn3)ccc(Cl)c1F)cc2=O [Example 141] |
| 0.3 | 1.5 | – | – | COC(=O)Nc1ccc(-c2cnc([C@@H]3C[C@@H](OC)c4cc(-c5c(-n6cnnn6)ccc(Cl)c5F)cc(=O)n43)[nH]2)cc1 [Example 152, Methyl (4-(2-((1R,3S)-7-(3-chloro-2-fluoro-6-(1H-tetrazol-1-yl)phenyl)-1-methoxy-5-oxo-1,2,3,5-tetrahydroindolizin-3-yl)-1H-imidazol-5-yl)phenyl)carbamate] |
